ChEMBL document CHEMBL1201862, “PubChem BioAssay data set” (2004)
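Results reflect a 48-hour exposure of cells in 96-well plates to compound at five concentrations. GI50 is the concentration that inhibits growth by half.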 Active and inactive are the calls of the source. Rule as the data show it: active = GI50 up to about 1.1 µM and inactive = higher.

Assays:
Assay in all cases: inhibition of tumour cell growth, NCI panel, 48 h
CCRF-CEM = system: CCRF-CEM
UACC-257 = system: UACC-257
ACHN = system: ACHN
OVCAR-5 = system: OVCAR-5
Hs-578T = system: Hs-578T
SF-268 = system: SF-268
A498 = system: A498
RPMI-8226 = system: RPMI-8226
COLO 205 = system: COLO 205
MCF7 = system: MCF7
U-251 = system: U-251
OVCAR-3 = system: OVCAR-3
NCI/ADR-RES = system: NCI/ADR-RES
UO-31 = system: UO-31
SNB-19 = system: SNB-19
HT-29 = system: HT-29
Malme-3M = system: Malme-3M
NCI-H522 = system: NCI-H522
TK-10 = system: TK-10
HOP-62 = system: HOP-62

Measured: GI50

COC(=O)C(CCCCN)NC(C)=O.Cc1ccc(C(=O)Nc2ccc(S(=O)(=O)O)c3cc(S(=O)(=O)O)cc(S(=O)(=O)O)c23)cc1NC(=O)c1cccc(NC(=O)Nc2cccc(C(=O)Nc3cc(C(=O)Nc4ccc(S(=O)(=O)O)c5cc(S(=O)(=O)O)cc(S(=O)(=O)O)c45)ccc3C)c2)c1
inactive: CCRF-CEM > 50 µM | UACC-257 > 50 µM | ACHN > 50 µM | OVCAR-5 > 50 µM | Hs-578T > 50 µM | SF-268 > 50 µM | A498 > 50 µM | RPMI-8226 > 50 µM | COLO 205 > 50 µM | MCF7 > 50 µM | U-251 > 50 µM | OVCAR-3 > 50 µM | NCI/ADR-RES > 50 µM | UO-31 > 50 µM | SNB-19 > 50 µM | HT-29 > 50 µM

CC1OC(O)C(O)C(O)C1O (stereo not drawn)
inactive: UACC-257 > 100 µM | ACHN > 100 µM | OVCAR-5 > 100 µM | Hs-578T > 100 µM | SF-268 > 100 µM | A498 > 100 µM | Malme-3M > 100 µM | NCI-H522 > 100 µM | RPMI-8226 > 100 µM | COLO 205 > 100 µM | MCF7 > 100 µM | U-251 > 100 µM | TK-10 > 100 µM | OVCAR-3 > 100 µM | NCI/ADR-RES > 100 µM | UO-31 > 100 µM | SNB-19 > 100 µM | HT-29 > 100 µM | HOP-62 > 100 µM

OCCCCCCCCCCCOc1ccc(C2OCC3(CO2)COC(c2ccc(OCCCCCCCCCCCO)cc2)OC3)cc1 (stereo not drawn)
inactive: UACC-257 > 50 µM | ACHN > 50 µM | OVCAR-5 > 50 µM | Hs-578T > 50 µM | SF-268 > 50 µM | A498 > 50 µM | Malme-3M > 50 µM | RPMI-8226 > 50 µM | COLO 205 > 50 µM | MCF7 > 50 µM | U-251 > 50 µM | TK-10 > 50 µM | OVCAR-3 > 50 µM | NCI/ADR-RES > 50 µM | UO-31 > 50 µM | SNB-19 > 50 µM | HT-29 > 50 µM | HOP-62 > 50 µM

CCCCCCCCCCCCCCCC[N+](C)(C)CCl
inactive: CCRF-CEM 1.15 µM | UACC-257 4.71 µM | ACHN 2.66 µM | OVCAR-5 6.89 µM | Hs-578T 1.85 µM | SF-268 2.74 µM | A498 8.67 µM | Malme-3M 2.65 µM | RPMI-8226 1.76 µM | COLO 205 1.65 µM | MCF7 2.69 µM | U-251 1.68 µM | TK-10 2.25 µM | OVCAR-3 3.03 µM | NCI/ADR-RES 20.6 µM | UO-31 11.1 µM | SNB-19 1.66 µM | HT-29 1.59 µM | HOP-62 2.29 µM

C[n+]1c(-c2ccc(/C=N\N3CCN(/N=C/c4ccc(-c5cn6ccsc6[n+]5C)cc4)CC3)cc2)cn2ccsc21
inactive: CCRF-CEM 36.7 µM | UACC-257 19.5 µM | ACHN 65.5 µM | OVCAR-5 > 100 µM | Hs-578T 19.2 µM | SF-268 34.4 µM | A498 23.1 µM | NCI-H522 18.1 µM | RPMI-8226 22.7 µM | COLO 205 16.8 µM | MCF7 29.9 µM | U-251 30.3 µM | TK-10 35.7 µM | OVCAR-3 59.8 µM | NCI/ADR-RES > 100 µM | UO-31 89.5 µM | SNB-19 38.4 µM | HT-29 40.8 µM

CC(=O)Nc1ccc(-c2cc(C(=O)O)c3cc4ccccc4cc3n2)cc1
inactive: UACC-257 > 100 µM | ACHN > 100 µM | OVCAR-5 > 100 µM | Hs-578T > 100 µM | SF-268 > 100 µM | A498 > 100 µM | Malme-3M > 100 µM | NCI-H522 > 100 µM | RPMI-8226 > 100 µM | COLO 205 > 100 µM | MCF7 > 100 µM | U-251 > 100 µM | TK-10 > 100 µM | OVCAR-3 > 100 µM | NCI/ADR-RES > 100 µM | SNB-19 > 100 µM | HT-29 > 100 µM | HOP-62 > 100 µM

O=C(OC[C@H]1C[C@H]2C(=O)CCC[C@H]2O1)c1ccccc1
inactive: CCRF-CEM > 100 µM | UACC-257 > 100 µM | ACHN > 100 µM | OVCAR-5 > 100 µM | Hs-578T > 100 µM | SF-268 > 100 µM | A498 > 100 µM | NCI-H522 > 100 µM | RPMI-8226 > 100 µM | COLO 205 > 100 µM | MCF7 > 100 µM | U-251 > 100 µM | TK-10 > 100 µM | OVCAR-3 > 100 µM | NCI/ADR-RES > 100 µM | UO-31 > 100 µM | SNB-19 > 100 µM | HT-29 > 100 µM | HOP-62 > 100 µM

COC(=O)C(CCC1C=CN(S(=O)(=O)c2ccc(C)cc2)C1)/N=C/c1ccccc1 (stereo not drawn)
inactive: CCRF-CEM 1.99 µM | UACC-257 50 µM | ACHN > 100 µM | OVCAR-5 60.7 µM | Hs-578T > 100 µM | SF-268 69.8 µM | A498 99.3 µM | NCI-H522 34.4 µM | RPMI-8226 28.1 µM | COLO 205 18.2 µM | MCF7 34.2 µM | U-251 43.5 µM | TK-10 83.2 µM | OVCAR-3 35.9 µM | NCI/ADR-RES > 100 µM | UO-31 65.5 µM | SNB-19 45 µM | HT-29 30.9 µM | HOP-62 59.2 µM

O=CC(O)C(O)C(O)C(O)C(=O)NCCCCCCCCCCCCNC(=O)C(O)C(O)C(O)C(O)C=O (stereo not drawn)
inactive: CCRF-CEM > 100 µM | UACC-257 > 100 µM | ACHN > 100 µM | OVCAR-5 > 100 µM | Hs-578T > 100 µM | SF-268 > 100 µM | A498 > 100 µM | Malme-3M > 100 µM | NCI-H522 > 100 µM | COLO 205 > 100 µM | MCF7 > 100 µM | U-251 > 100 µM | TK-10 > 100 µM | OVCAR-3 > 100 µM | NCI/ADR-RES > 100 µM | UO-31 > 100 µM | SNB-19 > 100 µM | HT-29 > 100 µM | HOP-62 > 100 µM

Cc1ccc(S(=O)(=O)NC(=O)NCCc2ccc(O)c(O)c2)cc1
inactive: ACHN > 100 µM | OVCAR-5 > 100 µM | Hs-578T > 100 µM | SF-268 > 100 µM | A498 > 100 µM | Malme-3M > 100 µM | NCI-H522 > 100 µM | RPMI-8226 38 µM | COLO 205 > 100 µM | MCF7 61.8 µM | U-251 > 100 µM | TK-10 > 100 µM | OVCAR-3 > 100 µM | NCI/ADR-RES > 100 µM | UO-31 > 100 µM | SNB-19 > 100 µM | HT-29 > 100 µM | HOP-62 > 100 µM
